The values that follow come from US10292999B2, “Treatment of enteric stress from heat and infection in humans and animals by supplementation with zinc and butyric acid” (Kemin Industries, Inc., priority 2015, dated 2019).

In assay [1] the test system is IPEC-J2 cells. Kind of assay: Trans-epithelial resistance (TER) of IPEC-J2 cells under heat stress. The class given is cell-based, pig. The conditions noted are these: 300 μM, heat stress 41.5° C.; for trans-epithelial resistance versus un-treated heat stress cells: FIG. 2. The protocol: FIG. 2 is a chart of the effect of 300 μM concentration of different test compounds on the transepithelial resistance (TER) values of IPEC-J2 cells under heat stress conditions.
When animals undergo heat stress, the increased temperature leads to damage of the epithelial layer as well as withdrawal of tight junction proteins to the cytoplasm of the epithelial cells, thus compromising the tight junctions. The compromised tight junctions allow for toxins and other inflammatory substances to enter the systemic circulation. […] As reported in FIG. 2, cells were treated with the test compounds and incubated at 41.5° C. (Con-TN) Control-Thermoneutral conditions—37° C. (CON—HS)—Control-Heat Stress conditions—41.5° C. (Zn Sulf) 300 μM Zinc Sulfate under Heat Stress Conditions—41.5° C. (ZBA) 300 μM ZBA under Heat Stress Conditions—41.5° C. (CaBA) 300 μM Calcium and Butyric Acid Salt under Heat Stress Conditions—41.5° C.

Assay [2] relates to IPEC-J2 cells. The conditions noted are these: 1 mM, normal conditions, vs control, FIG. 1.

Take `O=S(=O)([O-])[O-].[Zn+2]` [Zinc Sulfate]: in the assay on IPEC-J2 cells [1], the “trans-epithelial resistance versus un-treated heat stress cells” value is recorded as “do not improve the trans-epithelial resistance”; the “trans-epithelial resistance (TER), 0 h” value is on record as 1.00; the “trans-epithelial resistance (TER), 12 h” value is 1.67; the “trans-epithelial resistance (TER), 24 h” value was found to be 1.89. Moreover, in the assay with IPEC-J2 cells [1], the “trans-epithelial resistance (TER), 36 h” value is recorded as 2.19 and the “trans-epithelial resistance (TER), 48 h” value was found to be 2.31.
Consider `CCCC(=O)[O-].CCCC(=O)[O-].[Zn+2]` [ZBA, zinc salt of butyric acid in a molar ratio of 1:2], for which the trans-epithelial resistance result in the assay with IPEC-J2 cells [2] is listed as “increased trans-epithelial resistance”. Further, in the assay with IPEC-J2 cells [1], the “trans-epithelial resistance versus un-treated heat stress cells” value is “improves the trans-epithelial resistance to the level of cells grown that are grown at thermoneutral conditions”; the “trans-epithelial resistance (TER), 0 h” value is 1.00; the “trans-epithelial resistance (TER), 12 h” value is recorded as 2.04; the “trans-epithelial resistance (TER), 24 h” value amounted to 2.24. In the assay on IPEC-J2 cells [1], the “trans-epithelial resistance (TER), 36 h” value was found to be 2.60 and the “trans-epithelial resistance (TER), 48 h” value was found to be 2.76.
For “Calcium and Butyric Acid Salt [Calcium Butyric Acid Salt]”, in the assay on IPEC-J2 cells [1], the “trans-epithelial resistance versus un-treated heat stress cells” value is “do not improve the trans-epithelial resistance”; the “trans-epithelial resistance (TER), 0 h” value amounted to 1.00; the “trans-epithelial resistance (TER), 12 h” value is 1.58; the “trans-epithelial resistance (TER), 24 h” value stood at 1.74. For the same compound, in the assay on IPEC-J2 cells [1], the “trans-epithelial resistance (TER), 36 h” value is recorded as 1.96 and the “trans-epithelial resistance (TER), 48 h” value turned out to be 2.10.
